Results on three compounds are retold here after patent US20230233565A1, “A TREATMENT APPROACH INVOLVING KIF18A INHIBITION FOR CHROMOSOMALLY UNSTABLE TUMORS” (UNIVERSITY OF VERMONT, priority 2020, published 2023).

Format in all cases: cell-based
In experiment [1] the test system is MDA-MB-231 cells. The experiment is described as follows: Mitotic spindle morphology analysis (multipolar spindles, centrioles, fixed cells). As to the method: (§1) For experiments involving siRNA knockdown followed by drug treatment, the indicated concentrations of paclitaxel (Selleck Chemicals, Houston, Tex.), nocodazole (Selleck Chemicals, Houston, Tex.), and/or monastrol (Selleck Chemicals, Houston, Tex.) were added to cells 24 h after siRNA treatment. Three hours after drug addition, cells were either fixed and stained for immunofluorescence imaging or imaged live in a glass-bottom 24-well dish. To compare the effects of paclitaxel treatment to the effects of KIF18A KD in MDA-MB-231 and MCF10A cell lines, 10 nM of paclitaxel was added to cells 24 h before fixing and staining for immunofluorescence imaging.
Cells were grown on glass coverslips and fixed using either −20° C. methanol or 1% paraformaldehyde in −20° C. methanol. Cells were blocked with 20% goat serum in antibody diluting buffer (Abdil—TBS, 1% BSA, 0.1% Triton X-100, and 0.1% sodium azide) and incubated with the following primary antibodies: mouse anti-α-tubulin (DM1α) 1:500 (Millipore Sigma, Burlington Mass.) for one hour at room temperature (RT), human anti-centromere antibody (ACA) 1:250 (Antibodies Incorporated) overnight at 4° C., rabbit anti-γ-tubulin 1:500 (Abcam, Cambridge, Mass.) for one hour at RT, mouse anti-γ-tubulin 1:500 for one hour at RT (Abcam, Cambridge, Mass.), rabbit anti-KIF18A 1:100 (Bethyl Laboratories, Montgomery, Tex.) at 4° C. overnight, mouse anti-centrin-1 1:500 (Santa Cruz Biotechnology) for one hour at RT, and rabbit KIF18B 1:2000 (Shin et al., “Biased Brownian Motion as a Mechanism to Facilitate Nanometer-scale Exploration of the Microtubule Plus End by a Kinesin-8,” Proc National Acad Sci 112:E3826-35 (2015), which is hereby incorporated by reference in its entirety) for one hour at RT. Secondary antibodies conjugated to Alexa Fluor 488, 594, and 647 (Molecular Probes, Eugene, Oreg.) were used at concentrations of 1:15000 for one hour at RT. Coverslips were mounted onto glass slides using Prolong Gold anti-fade mounting medium with DAPI (Molecular Probes, Eugene, Oreg.).
(§2) To analyze mitotic spindle morphology, cells were fixed and stained for γ-tubulin, α-tubulin, and centrin-1. Enough optical slices spaced 200 nm apart were captured to visualize the entire 3-D structure of the spindle. Spindles with three or more visible microtubule-organizing centers were classified as multipolar. Cells were considered to have fragmented pericentriolar material (PCM) if they had supernumerary poles observed via γ-tubulin staining but lacked centrioles (centrin-1 puncta) at one or more of the poles. Intercentriolar distance, or the distance in microns between two centrioles in a pair, was measured from the center of one centriole to the center of the adjacent centriole.

Experiment [2] relates to MDA-MB-231 cells. The experiment is described as follows: Live imaging with siR-tubulin (spindle pole splitting). The note with it: UMK57 in KIF18A KD cells. Here is the method:
Cells were plated in a glass-bottom 24-well dish and treated with the indicated siRNA approximately 24 hours before imaging. Six hours before imaging, the cell culture media was replaced with CO2-independent media containing […] SiR-tubulin (Cytoskeleton). For conditions involving UMK57 or DMSO, the specified drug was added to the CO2-independent media with siR-tubulin. Cells were imaged every 2 minutes for 16-20 hours using a 40×0.75 NA objective (Nikon).

For experiment [3], the system named is MDA-MB-231 cells. The experiment is described as follows: Kinetic cell proliferation assay, siRNA plus UMK57 or DMSO. Here is the method: HT29, LoVo, SW480, LS1034, HCC1806, HCT116, MCF10A, MDA-MB-231, and MDA-MB-468 cells were purchased from ATCC (Manassas, Va.). All cell lines were validated by STR DNA fingerprinting using the Promega GenePrint® 10 System according to manufacturer's instructions (Promega #B9510). HT29, LoVo, SW480, MDA-MB-231, and MDA-MB-468 cells were cultured in DMEM/F-12 medium (Gibco) supplemented with 10% FBS (Gibco) and 1% penicillin/streptomycin (pen/strep). LS1034 and HCC1806 cells were cultured in RPMI 1640 medium (Gibco) with 10% FBS and 1% pen/strep. […]
Cells were imaged in either a 96- or 24-well dish every two or four hours for up to five days using the Cytation 5 Cell Imaging Multi-Mode Reader (Biotek, Winooski, Vt.) driven by Gen5 software (Biotek, Winooski, Vt.). […] Between imaging reads, cells were incubated at 37° C. with 5% CO2 using the Biospa 8 Automated Incubator (Biotek, Winooski, Vt.). […] To determine rates of cell proliferation, the fold change in cells/mm^2 between the first and last reads of each well were calculated and normalized to the control for each experiment. […] For cytotoxicity assays, CellTox™ Green Dye (Promega, Madison, Wis.) was added to cell media prior to imaging, and the number of cells/mm^2 was recorded for both GFP and brightfield channels. […]

Experiment [4] relates to MDA-MB-231 cells. The experiment is described as follows: Mitotic index from fixed-cell images. The settings on record: 500 nM UMK57 in KIF18A-depleted cells, versus DMSO. As to the method:
as §1
(§3) To measure the length of mitosis, live cells were imaged every two minutes for 16-20 hours using differential interference contrast (DIC) microscopy. The time between nuclear envelope breakdown (NEB) and anaphase onset (AO) was used to indicate the time a cell spent in mitosis. Mitotic index was measured using fixed-cell images by counting the number of mitotic cells divided by the total number of cells. All mitotic index fields were taken with a 40×objective. An unpaired t-test was used to determine statistical significance between control and KIF18A KD conditions for each cell line.

Experiment [5] deals with diploid MCF10A cells. The experiment is described as follows: Mitotic spindle morphology analysis (multipolar spindles, fixed cells). The note with it: 10 nM paclitaxel, 24 h. As to the method:
as §1, §2

The test system of experiment [6] is diploid MCF10A cells. The experiment is described as follows: Mitotic index from fixed-cell images. The settings on record: 10 nM paclitaxel, 24 h. Here is the method:
as §1, §3

With `Cc1ccc(-c2csc3ncnc(N4CCCC4)c23)cc1` [UMK57], in experiment [1] (500 nM UMK57 in KIF18A KD cells, versus DMSO), the “percentage of multipolar spindles” value is listed as “small but significant increase in multipolar spindles”. The “chromosome alignment defects in bipolar spindles” value in experiment [1] (UMK57 in KIF18A KD cells) is on record as “without an obvious change in chromosome alignment defects”. Further, the spindle pole splitting entry in experiment [2] was “increased spindle pole splitting”. Also, the proliferation entry in experiment [3] (500 nM UMK57 in KIF18A-depleted cells, versus DMSO) is reported as “decreased proliferation”; in experiment [3] (500 nM UMK57 in control siRNA-treated cells), “no impact on the proliferation”. In addition, the mitotic index entry in experiment [4] was “increased”.

Regarding `COC(=O)Nc1nc2ccc(C(=O)c3cccs3)cc2[nH]1` [nocodazole], the “multipolar spindles in KIF18A KD cells” value in experiment [1] (5 μM nocodazole for 3 h, versus DMSO) is recorded as “significantly fewer multipolar spindles”.

Consider `CC(=O)O[C@H]1C(=O)[C@@]2(C)[C@H]([C@H](OC(=O)c3ccccc3)[C@]3(O)C[C@H](OC(=O)[C@H](O)[C@@H](NC(=O)c4ccccc4)c4ccccc4)C(C)=C1C3(C)C)[C@]1(OC(C)=O)CO[C@@H]1C[C@@H]2O` [paclitaxel], for which the “multipolar spindles in KIF18A KD cells” value in experiment [1] (20 nM paclitaxel for 3 h, versus DMSO) was “significantly fewer multipolar spindles”. Further, the “mitotic defects (mitotic index, multipolar spindles)” value in experiment [1] (MDA-MB-231, KIF18A KD versus 10 nM paclitaxel (24 h)) was “produced similar mitotic defects”. Besides, the multipolar spindles entry in experiment [5] was “increased”. Further, the mitotic index entry in experiment [6] is “increased the mitotic index”.
